Laboratory results reported in patent publication US9951058B2, “Compound, pharmaceutically acceptable salt or optical isomer thereof, method for preparing the same, and pharmaceutical composition for prevention or treatment of viral diseases containing same as active ingredient” (Korea Research Institute of Chemical Technology, priority 2012, dated 2018).
≈ marks a conversion by molar mass, not a printed value.

What was measured:
HRV 21 = assay: Cytopathic effect (CPE) inhibition assay; type: cell-based, human rhinovirus; conditions: Human rhinovirus sp., 72 h; host cell HeLa, 3 days, MEM/2% FBS, MTT assay; read-out: EC50 HRV 21
[1] = tested on: coxsackievirus B1 (Cox B1); assay: Multicycle cytopathic effect (CPE) reduction assay; type: cell-based; conditions: Enterovirus B, B1, 72 h, read-out: EC50 CoxB1
[2] = Cytotoxicity (CC50) in multicycle CPE reduction assay, MTS; conditions: human
HRV 71 = assay: Cytopathic effect (CPE) inhibition assay; type: cell-based, human rhinovirus; conditions: Human rhinovirus sp., 72 h; host cell HeLa, 3 days, MEM/2% FBS, MTT assay; read-out: EC50 HRV 71
HRV 14 = assay: Cytopathic effect (CPE) inhibition assay; type: cell-based, human rhinovirus; conditions: Human rhinovirus sp., HeLa, 72 h, host cell HeLa, 3 days, MEM/2% FBS, MTT assay; read-out: EC50 HRV 14
poliovirus 3 (PV3) = assay: microbe, parasite or virus in culture; type: cell-based; conditions: Enterovirus C, 72 h, read-out: EC50 PV3
[3] = tested on: coxsackievirus B3 (Cox B3); assay: Multicycle cytopathic effect (CPE) reduction assay; type: cell-based; conditions: Enterovirus B, B3, 72 h, read-out: EC50 CoxB3
in vitro = conditions: human

Row | Compound | EC50 (HRV 21) | EC50 [1] | CC50 at 3 days [2] | EC50 (HRV 71) | EC50 (HRV 14) | EC50 (poliovirus 3 (PV3)) | EC50 [3] | CC50 (in vitro)
1 | CC(C)c1ccc2c(c1)OC1(O)c3ccccc3C(=O)C21NC(=O)C(=O)c1cccs1 (stereo not drawn) [Example 2, N-(4b-hydroxy-7-isopropyl-10-oxo-9b, 10-dihydro-4bH-indeno[1,2-b]benzofuran-9b-yl)-2-oxo-2-(thiopen-2-yl)acetamide] | > 8.57 µg/mL | < 0.01 µg/mL | 9.02 µg/mL (≈ 20.8 µM) | > 8.57 µg/mL | < 0.1 µg/mL | < 1 µg/mL | < 0.01 µg/mL | 8.57 µg/mL (≈ 19.8 µM)
2 | CC(C)c1ccc2c(c1)OC1(O)c3ccccc3C(=O)C21NC(=O)C(=O)N1CCN(C)CC1 (stereo not drawn) [Example 48, N-(4b-hydroxy-7-isopropyl-10-oxo-4b, 10-dihydro-9bH-indeno[1,2-b]benzofuran-9b-yl)-2-(4-methylpiperazin-1-yl)-2-oxo acetamide] | > 10 µg/mL | < 0.1 µg/mL | > 10 µg/mL | > 10 µg/mL | < 1 µg/mL | < 10 µg/mL | < 0.1 µg/mL | > 10 µg/mL
3 | Cc1cc2c(cc1C)C1(NC(=O)C(=O)c3c[nH]c4ccccc34)C(=O)c3ccccc3C1(O)O2 (stereo not drawn) [Example 13, N-(4b-hydroxy-7,8-dimethyl-10-oxo-9b, 10-dihydro-9bH-indeno[1,2-b]benzofuran-9b-yl)-(1H-indo1-3-yl)-2-oxo acetamide] | > 8.41 µg/mL | 0.061 µg/mL (≈ 0.135 µM) | 8.31 µg/mL (≈ 18.4 µM) | > 8.41 µg/mL | 1.85 µg/mL (≈ 4.09 µM) | 1.98 µg/mL (≈ 4.38 µM) | 0.13 µg/mL (≈ 0.287 µM) | 8.41 µg/mL (≈ 18.6 µM)
4 | CC(=O)C(=O)NC12C(=O)c3ccccc3C1(O)Oc1cc(C(C)C)ccc12 (stereo not drawn) [Example 4, N-(4b-hydroxy-7-isopropyl-10-oxo-9b, 10-dihydro-4bH-indeno[1,2-b]benzofuran-9b-yl)-2-oxo propanamide] | > 9.02 µg/mL | < 0.01 µg/mL | > 10 µg/mL | > 9.02 µg/mL | < 0.1 µg/mL | < 1 µg/mL | < 0.01 µg/mL | 9.02 µg/mL (≈ 24.7 µM)
5 | CC(C)c1ccc2c(c1)OC1(O)c3ccccc3C(=O)C21NC(=O)C(=O)c1c[nH]c2ccccc12 (stereo not drawn) [Example 1, N-(4b-hydroxy-7-isopropyl-10-oxo-9b, 10-dihydro-4bH-benzo[d]indeno[1,2-b]furan-9b-yl)-2-(1H-indol-3-yl)-2-oxo acetamide] | > 7.91 µg/mL | 0.017 µg/mL (≈ 0.0364 µM) | 8.57 µg/mL (≈ 18.4 µM) | > 7.91 µg/mL | < 1 µg/mL | 1.1 µg/mL (≈ 2.36 µM) | 0.061 µg/mL (≈ 0.131 µM) | 7.91 µg/mL (≈ 17 µM)
6 | Cc1cc(C)c(C(=O)C(=O)NC23C(=O)c4cccc([N+](=O)[O-])c4C2(O)Oc2cc(C(C)C)ccc23)c(C)c1 (stereo not drawn) [Example 51] | > 10 µg/mL | < 10 µg/mL | > 10 µg/mL | > 10 µg/mL | > 10 µg/mL | > 10 µg/mL | < 10 µg/mL | > 10 µg/mL
7 | CC(C)c1ccc2c(c1)OC1(O)c3c(cccc3[N+](=O)[O-])C(=O)C21NC(=O)C(=O)c1ccccc1 (stereo not drawn) [Example 16, N-(4b-hydroxy-7-isopropyl-4-nitro-10-oxo-9b, 10-dihydro-4bH-indeno[1,2-b]benzofuran-9b-yl)-2-oxo-2-phenyl acetamide] | > 10 µg/mL | 0.078 µg/mL (≈ 0.165 µM) | > 10 µg/mL | > 10 µg/mL | 1.77 µg/mL (≈ 3.75 µM) | 2.13 µg/mL (≈ 4.51 µM) | 0.33 µg/mL (≈ 0.698 µM) | > 10 µg/mL
8 | CCCCCCC(=O)C(=O)NC12C(=O)c3cccc([N+](=O)[O-])c3C1(O)Oc1cc(C(C)C)ccc12 (stereo not drawn) [Example 35, N-(4b-hydroxy-7-isopropyl-4-nitro-10-oxo-4b, 10-dihydro-9bH-indeno[1,2-b]benzofuran-9b-yl)-2-oxo octanamide] | > 10 µg/mL | < 1 µg/mL | > 10 µg/mL | > 10 µg/mL | < 10 µg/mL | < 10 µg/mL | < 1 µg/mL | > 10 µg/mL
9 | CC(=N)NC12C(=O)c3ccccc3C1(O)Oc1cc(C(C)C)ccc12 (stereo not drawn) [Example 60, N-(4b-hydroxy-7-isopropyl-10-oxo-4b, 10-dihydro-9bH-indeno[1,2-b]benzofuran-9b-yl)acetimide amide] | > 10 µg/mL | < 1 µg/mL | > 10 µg/mL | > 10 µg/mL | < 10 µg/mL | > 10 µg/mL | < 10 µg/mL | > 10 µg/mL
10 | CCOC(=O)C(=O)NC12C(=O)c3ccccc3C1(O)Oc1cc(C(C)C)ccc12 (stereo not drawn) [Example 32, Ethyl 2-((4b-hydroxy-7-isopropyl-10-oxo-4b, 10-dihydro-9bH-indeno[1,2-b]benzofuran-9b-yl)amino)-2-oxo acetate] | > 10 µg/mL | < 0.1 µg/mL | > 10 µg/mL | > 10 µg/mL | < 1 µg/mL | < 10 µg/mL | < 1 µg/mL | > 10 µg/mL
11 | CC(C)c1ccc2c(c1)OC1(O)c3ccccc3C(=O)C21NC(=O)C(=O)Cc1ccccc1[N+](=O)[O-] (stereo not drawn) [Example 3, N-(4b-hydroxy-7-isopropyl-10-oxo-9b, 10-dihydro-4bH-indeno[1,2-b]benzofuran-9b-yl)-3-(2-nitrophenyl)-2-oxo propanamide] | > 1.76 µg/mL | 0.013 µg/mL (≈ 0.0267 µM) | 2.38 µg/mL (≈ 4.89 µM) | > 1.76 µg/mL | > 1.76 µg/mL | < 1 µg/mL | 0.015 µg/mL (≈ 0.0308 µM) | 1.76 µg/mL (≈ 3.62 µM)
12 | CC(C)c1ccc2c(c1)OC1(O)c3cccc(N)c3C(=O)C21NC(=O)C(=O)c1c[nH]c2ccccc12 (stereo not drawn) [Example 10, N-(1-amino-4b-hydroxy-7-isopropyl-10-oxo-9b, 10-dihydro-4bH-indeno[1,2-b]benzofuran-9b-yl)-2-(1H-indo1-3-yl)-2-oxo acetamide] | > 4.89 µg/mL | < 0.01 µg/mL | 8.33 µg/mL (≈ 17.3 µM) | > 4.89 µg/mL | < 0.1 µg/mL | < 0.1 µg/mL | 0.014 µg/mL (≈ 0.0291 µM) | 4.89 µg/mL (≈ 10.2 µM)
13 | CC(C)c1ccc2c(c1)OC1(O)c3ccccc3C(=O)C21NC(=O)C(=O)Cc1ccc(O)cc1 (stereo not drawn) [Example 9, N-(4b-hydroxy-7-isopropyl-10-oxo-9b, 10-dihydro-4bH-indeno[1,2-b]benzofuran-9b-yl)-3-(4-hydroxyphenyl)-2-oxo propanamide] | > 3.76 µg/mL | 0.013 µg/mL (≈ 0.0284 µM) | 9.21 µg/mL (≈ 20.1 µM) | > 3.76 µg/mL | > 3.76 µg/mL | < 1 µg/mL | 0.015 µg/mL (≈ 0.0328 µM) | 3.76 µg/mL (≈ 8.22 µM)
14 | CC(C)c1ccc2c(c1)OC1(O)c3cccc(N)c3C(=O)C21NC(=O)C(=O)c1ccccc1 (stereo not drawn) [Example 11, N-(1-amino-4b-hydroxy-7-isopropyl-10-oxo-9b, 10-dihydro-4bH-indeno[1,2-b]benzofuran-9b-yl)-2-oxo-2-phenyl acetamide] | 3.13 µg/mL (≈ 7.07 µM) | < 0.01 µg/mL | 8.72 µg/mL (≈ 19.7 µM) | > 7.82 µg/mL | < 0.1 µg/mL | < 0.1 µg/mL | < 0.01 µg/mL | 7.82 µg/mL (≈ 17.7 µM)
15 | COc1cc(C(=O)C(=O)NC23C(=O)c4cccc([N+](=O)[O-])c4C2(O)Oc2cc(C(C)C)ccc23)cc(OC)c1OC (stereo not drawn) [Example 58, N-(4b-hydroxy-7-isopropyl-4-nitro-10-oxo-4b, 10-dihydro-9bH-indeno[1,2-b]benzofuran-9b-yl) 2-oxo-2-(3,4,5-trimethoxyphenyl)acetamide] | > 10 µg/mL | < 10 µg/mL | > 10 µg/mL | > 10 µg/mL | < 10 µg/mL | > 10 µg/mL | < 10 µg/mL | > 10 µg/mL
16 | CC(=O)C(=O)NC12C(=O)c3c(N)cccc3C1(O)Oc1cc(C(C)C)ccc12 (stereo not drawn) [Example 22, N-(1-amino-4b-hydroxy-7-isopropyl-10-oxo-4b, 10-dihydro-9bH-indeno[1,2-b]benzofuran-9b-yl)-2-oxo propanamide] | < 10 µg/mL | < 0.01 µg/mL | > 10 µg/mL | 8.5 µg/mL (≈ 22.3 µM) | < 0.01 µg/mL | < 0.1 µg/mL | < 0.01 µg/mL | > 10 µg/mL
17 | CC(=O)C(=O)NC12C(=O)c3cccc([N+](=O)[O-])c3C1(O)Oc1cc(C(C)C)ccc12 (stereo not drawn) [Example 19, N-(4b-hydroxy-7-isopropyl-4-nitro-10-oxo-4b, 10-dihydro-9bH-indeno[1,2-b]benzofuran-9b-yl)-2-oxo propanamide] | > 10 µg/mL | < 1 µg/mL | > 10 µg/mL | > 10 µg/mL | < 10 µg/mL | < 10 µg/mL | < 1 µg/mL | > 10 µg/mL
18 | CC(C)c1ccc2c(c1)OC1(O)c3ccccc3C(=O)C21NC(=O)CN (stereo not drawn) [Example 64, 2-amino-N-(4b-hydroxy-7-isopropyl-10-oxo-4b, 10-dihydro-9bH-indeno[1,2-b]benzofuran-9b-yl)acetamide] | > 10 µg/mL | < 0.1 µg/mL | > 10 µg/mL | > 10 µg/mL | < 10 µg/mL | > 10 µg/mL | < 0.1 µg/mL | > 10 µg/mL
19 | CC(C)c1ccc2c(c1)OC1(O)c3ccccc3C(=O)C21NC(=O)CCC(=O)N(C)C (stereo not drawn) [Example 44, N1-(4b-hydroxy-7-isopropyl-10-oxo-4b, 10-dihydro-9bH-indeno[1,2-b]benzofuran-9b-yl)-N4, N4-dimethyl succinamide] |  | < 0.1 µg/mL | > 10 µg/mL |  |  | < 10 µg/mL | < 0.1 µg/mL | 
20 | CC(C)NC(=O)CCC(=O)NC12C(=O)c3ccccc3C1(O)Oc1cc(C(C)C)ccc12 (stereo not drawn) [Example 45, N1-(4b-hydroxy-7-isopropyl-10-oxo-4b, 10-dihydro-9bH-indeno[1,2-b]benzofuran-9b-yl)-N4-isopropyl succinamide] |  | < 0.1 µg/mL | > 10 µg/mL |  |  | < 10 µg/mL | < 0.1 µg/mL | > 10 µg/mL
